Experimental data as given in US20050112573A1, “Method of detecting toxic substance” (priority 2001, published 2005).

Test system: yeast genes (level of expressed mRNA)
Experiment: DNA chip analysis of expressed mRNA of yeast genes after 2 h culture with a toxic chemical substance
Type: cell-based, Saccharomyces cerevisiae S288C
Conditions: for The level of expressed mRNA in the presence of chemical substance/ (ratio to absence of chemical substance): stress protein genes, DNA chip
In short: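 S. cerevisiae S288C grown at 25° C in YPD; toxicant added at log phase at growth-inhibitory, non-lethal levels for 2 h, untreated cells as control. Poly(A) mRNA reverse-transcribed with Cy3/Cy5-dUTP, hybridized to whole-genome chip at 65° C >12 h; value is fluorescence ratio versus untreated.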

C=CC=O [(14), acrolein]
1.2: The level of expressed mRNA in the presence of chemical substance/The level of expressed mRNA in the absence of chemical substance (yeast gene YKL193C) | The level of expressed mRNA in the presence of chemical substance/ in its absence, gene YLR295C (yeast gene YLR295C, energy system protein genes, 2 h culture with the chemical, ratio to control without chemical) | The level of expressed mRNA in the presence of chemical substance/ (ratio to absence), gene YLR295C (yeast gene YLR295C, mitochondria-located protein genes, 2 h culture with chemical) | The level of expressed mRNA in the presence of chemical substance/The level of expressed mRNA in the absence of chemical substance (yeast gene YLR362W) | The level of expressed mRNA in the presence of chemical substance/The level of expressed mRNA in the absence of chemical substance (yeast gene YMR276W)
1.0: The level of expressed mRNA in the presence of chemical substance/ (ratio to absence of chemical substance) (yeast gene YJR090C) | The level of expressed mRNA in the presence of chemical substance/ (in its absence), gene YKR009C (yeast gene YKR009C, ratio of DNA chip fluorescence intensity to that without chemical substance) | The level of expressed mRNA in the presence of chemical substance/ (in its absence), gene YLR006C (yeast gene YLR006C, ratio of DNA chip fluorescence intensity to that without chemical substance) | The level of expressed mRNA in the presence of chemical substance/ (ratio to absence of chemical substance) (yeast gene YLR006C) | The level of expressed mRNA in the presence of chemical substance/ in its absence, gene YMR267W (yeast gene YMR267W, energy system protein genes, 2 h culture with the chemical, ratio to control without chemical) | The level of expressed mRNA in the presence of chemical substance/ (ratio to absence), gene YMR267W (yeast gene YMR267W, mitochondria-located protein genes, 2 h culture with chemical) | The level of expressed mRNA in the presence of chemical substance/ in its absence, gene YMR267W (yeast gene YMR267W, ratio of DNA chip fluorescence intensity to that without chemical substance) | The level of expressed mRNA in the presence of chemical substance/The level of expressed mRNA in the absence of chemical substance (yeast gene YMR314W)
1.3: The level of expressed mRNA in the presence of chemical substance/ (in its absence), gene YJL070C (yeast gene YJL070C, ratio of DNA chip fluorescence intensity to that without chemical substance) | The level of expressed mRNA in the presence of chemical substance/The level of expressed mRNA in the absence of chemical substance (yeast gene YKL041W) | The level of expressed mRNA in the presence of chemical substance/ (ratio to absence of chemical substance) (yeast gene YKR053C) | The level of expressed mRNA in the presence of chemical substance/ in its absence, gene YKR058W (yeast gene YKR058W, energy system protein genes, 2 h culture with the chemical, ratio to control without chemical) | The level of expressed mRNA in the presence of chemical substance/ (in its absence), gene YMR293C (yeast gene YMR293C, ratio of DNA chip fluorescence intensity to that without chemical substance)
2.6: The level of expressed mRNA in the presence of chemical substance/The level of expressed mRNA in the absence of chemical substance (yeast gene YJL116C)
0.5: The level of expressed mRNA in the presence of chemical substance/ (ratio to absence of chemical substance) (yeast gene YJL158C) | The level of expressed mRNA in the presence of chemical substance/The level of expressed mRNA in the absence of chemical substance (yeast gene YKL096W) | The level of expressed mRNA in the presence of chemical substance/The level of expressed mRNA in the absence of chemical substance (yeast gene YLR391W) | The level of expressed mRNA in the presence of chemical substance/The level of expressed mRNA in the absence of chemical substance (yeast gene YMR219W)
0.3: The level of expressed mRNA in the presence of chemical substance/ (ratio to absence of chemical substance) (yeast gene YKL164C)
1.5: The level of expressed mRNA in the presence of chemical substance/The level of expressed mRNA in the absence of chemical substance (yeast gene YLR327C)
2.2: The level of expressed mRNA in the presence of chemical substance/The level of expressed mRNA in the absence of chemical substance (yeast gene YJR086W) | The level of expressed mRNA in the presence of chemical substance/The level of expressed mRNA in the absence of chemical substance (yeast gene YLR356W) | The level of expressed mRNA in the presence of chemical substance/The level of expressed mRNA in the absence of chemical substance (yeast gene YMR004W)
1.4: The level of expressed mRNA in the presence of chemical substance/ (ratio to absence), gene YJL180C (yeast gene YJL180C, mitochondria-located protein genes, 2 h culture with chemical) | The level of expressed mRNA in the presence of chemical substance/The level of expressed mRNA in the absence of chemical substance (yeast gene YKL013C) | The level of expressed mRNA in the presence of chemical substance/ (in its absence), gene YLR351C (yeast gene YLR351C, ratio of DNA chip fluorescence intensity to that without chemical substance) | The level of expressed mRNA in the presence of chemical substance/ in its absence, gene YML129C (yeast gene YML129C, energy system protein genes, 2 h culture with the chemical, ratio to control without chemical) | The level of expressed mRNA in the presence of chemical substance/ (ratio to absence), gene YML129C (yeast gene YML129C, mitochondria-located protein genes, 2 h culture with chemical)
0.6: The level of expressed mRNA in the presence of chemical substance/ (ratio to absence of chemical substance) (yeast gene YMR186W)
1.1: The level of expressed mRNA in the presence of chemical substance/The level of expressed mRNA in the absence of chemical substance (yeast gene YJL073W) | The level of expressed mRNA in the presence of chemical substance/ (in its absence), gene YJL216C (yeast gene YJL216C, ratio of DNA chip fluorescence intensity to that without chemical substance) | The level of expressed mRNA in the presence of chemical substance/ (in its absence), gene YKR034W (yeast gene YKR034W, ratio of DNA chip fluorescence intensity to that without chemical substance) | The level of expressed mRNA in the presence of chemical substance/The level of expressed mRNA in the absence of chemical substance (yeast gene YMR104C)
0.7: The level of expressed mRNA in the presence of chemical substance/The level of expressed mRNA in the absence of chemical substance (yeast gene YJR004C) | The level of expressed mRNA in the presence of chemical substance/The level of expressed mRNA in the absence of chemical substance (yeast gene YLR136C) | The level of expressed mRNA in the presence of chemical substance/The level of expressed mRNA in the absence of chemical substance (yeast gene YLR429W)
2.8: The level of expressed mRNA in the presence of chemical substance/The level of expressed mRNA in the absence of chemical substance (yeast gene YLR178C) | The level of expressed mRNA in the presence of chemical substance/The level of expressed mRNA in the absence of chemical substance (yeast gene YMR094W)
0.8: The level of expressed mRNA in the presence of chemical substance/The level of expressed mRNA in the absence of chemical substance (yeast gene YKL008C) | The level of expressed mRNA in the presence of chemical substance/The level of expressed mRNA in the absence of chemical substance (yeast gene YKL039W) | The level of expressed mRNA in the presence of chemical substance/The level of expressed mRNA in the absence of chemical substance (yeast gene YKL165C) | The level of expressed mRNA in the presence of chemical substance/The level of expressed mRNA in the absence of chemical substance (yeast gene YLR120C) | The level of expressed mRNA in the presence of chemical substance/The level of expressed mRNA in the absence of chemical substance (yeast gene YMR275C) | The level of expressed mRNA in the presence of chemical substance/ (in its absence), gene YMR278W (yeast gene YMR278W, ratio of DNA chip fluorescence intensity to that without chemical substance)
2.5: The level of expressed mRNA in the presence of chemical substance/The level of expressed mRNA in the absence of chemical substance (yeast gene YLR250W)
1.8: The level of expressed mRNA in the presence of chemical substance/The level of expressed mRNA in the absence of chemical substance (yeast gene YJL089W)
0.9: The level of expressed mRNA in the presence of chemical substance/The level of expressed mRNA in the absence of chemical substance (yeast gene YIL140W) | The level of expressed mRNA in the presence of chemical substance/ (in its absence), gene YJL167W (yeast gene YJL167W, ratio of DNA chip fluorescence intensity to that without chemical substance) | The level of expressed mRNA in the presence of chemical substance/ (in its absence), gene YLR375W (yeast gene YLR375W, ratio of DNA chip fluorescence intensity to that without chemical substance)
2.1: The level of expressed mRNA in the presence of chemical substance/ (ratio to absence), gene YJL096W (yeast gene YJL096W, mitochondria-located protein genes, 2 h culture with chemical)
1.6: The level of expressed mRNA in the presence of chemical substance/ (ratio to absence), gene YMR023C (yeast gene YMR023C, mitochondria-located protein genes, 2 h culture with chemical) | The level of expressed mRNA in the presence of chemical substance/The level of expressed mRNA in the absence of chemical substance (yeast gene YMR226C)
